Among the data in ChEMBL document CHEMBL1131242, “6beta-Acetoxynortropane: a potent muscarinic agonist with apparent selectivity toward M2-receptors” (J Med Chem, 1998) are inhibition values, retold here.

In test [1] the target is Muscarinic acetylcholine receptor M3 (Homo sapiens, UniProt P20309). The experiment in a line: Inhibition of binding of [3H]quinuclidinyl benzilate to human Muscarinic acetylcholine receptor M3 in membranes of transfected CHO cells at 100 uM concentration. The note with it: Membrane.
Sequence of Muscarinic acetylcholine receptor M3 (P20309 whole entry, looked up): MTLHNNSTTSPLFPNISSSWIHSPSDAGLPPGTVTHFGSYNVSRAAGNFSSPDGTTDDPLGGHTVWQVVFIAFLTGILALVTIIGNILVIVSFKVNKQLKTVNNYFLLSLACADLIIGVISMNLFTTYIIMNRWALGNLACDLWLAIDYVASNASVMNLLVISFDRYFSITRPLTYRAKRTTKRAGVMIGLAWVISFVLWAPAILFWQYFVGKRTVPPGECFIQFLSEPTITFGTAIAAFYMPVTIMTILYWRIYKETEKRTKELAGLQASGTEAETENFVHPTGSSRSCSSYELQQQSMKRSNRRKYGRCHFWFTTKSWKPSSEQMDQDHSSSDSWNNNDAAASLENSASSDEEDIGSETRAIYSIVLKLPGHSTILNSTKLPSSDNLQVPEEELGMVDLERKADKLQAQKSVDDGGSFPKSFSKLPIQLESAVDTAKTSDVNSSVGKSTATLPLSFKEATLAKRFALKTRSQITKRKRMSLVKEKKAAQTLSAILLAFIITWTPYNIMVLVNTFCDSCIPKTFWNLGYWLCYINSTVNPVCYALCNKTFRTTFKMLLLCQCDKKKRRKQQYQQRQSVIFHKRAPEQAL
Test [2] addresses Muscarinic acetylcholine receptor M1 (Homo sapiens) (UniProt P11229). Briefly: Inhibition of binding of [3H]quinuclidinyl benzilate to human Muscarinic acetylcholine receptor M1 in membranes of transfected CHO cells at 300 uM concentration. The note with it: Membrane.

Sequence of Muscarinic acetylcholine receptor M1 (Homo sapiens) (P11229 whole entry, looked up): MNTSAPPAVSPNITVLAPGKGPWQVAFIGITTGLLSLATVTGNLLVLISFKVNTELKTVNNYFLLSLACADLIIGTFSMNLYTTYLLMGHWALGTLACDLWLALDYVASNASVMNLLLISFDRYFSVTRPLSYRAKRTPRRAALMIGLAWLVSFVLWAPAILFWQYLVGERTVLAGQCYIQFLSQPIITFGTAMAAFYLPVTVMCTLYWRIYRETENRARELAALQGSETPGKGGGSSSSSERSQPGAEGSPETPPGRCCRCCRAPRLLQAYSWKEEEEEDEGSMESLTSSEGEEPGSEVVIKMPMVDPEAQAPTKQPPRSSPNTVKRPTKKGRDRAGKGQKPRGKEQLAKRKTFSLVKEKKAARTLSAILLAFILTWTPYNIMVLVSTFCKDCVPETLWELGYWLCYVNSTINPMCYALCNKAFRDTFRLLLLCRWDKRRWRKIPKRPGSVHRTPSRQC

Consider `CC(=O)OC(C)C[N+](C)(C)C` (configuration not stated) [METHACHOLINE], for which the results for the inhibition in test [1] and in test [2] were 34% and 8%, respectively.

For orientation: inhibition means how much of the control response was suppressed. High values mean a response far below the control, low ones a response near the control.
